The test system of assay [1] is Sprague-Dawley rats. Briefly: Glucose tolerance test (glucose 1 g/kg IP) in dexamethasone-treated rats. The settings on record: dexamethasone vs vehicle. Format: in vivo, rat. The method, then:
(§1) (A) Sprague-Dawley rats were treated with myriocin (300 μg/Kg, IP, solid bars) or saline (open bars) for two weeks prior to giving administering dexamethasone (40 μg/Kg, IP) or vehicle (5% ethanol) every 12 hours for 36 hours. Animals were euthanized by CO2 inhalation, livers were removed, and ceramide levels were assessed as described in SOM-Methods. Shown are mean ceramide levels+/−S.E.M, n=6 per group. The asterisk denotes that the sample was statistically different from vehicle-treated controls, p<0.05, student's t-test. (B) Livers were obtained as in A, above, and protein and mRNA were extracted as described in SOM-Methods. Levels of transcripts (solid bars) encoding serine palimitoyl transferase isoforms 1 and 2 (SPT1 and SPT2), dihydroceramide synthases (DCS) TL1, UOG, and TRH3, glucosylceramide synthase (GCS), and acid ceramidase (AC) transcripts were obtained by reverse-transcriptase polymerase chain reaction, normalized to β-actin. SPT2 protein levels (white bars) were detected by immunoblotting with an antibody from Cayman Chemicals (Ann Arbor, Mich.) and quantified on a Kodak Image Station 2000R (Rochester, N.Y.). Data represent the fold-change in transcript or protein in dexamethasone-treated animals relative to vehicle controls. […] (C and D) Rats were challenged with glucose (1 g/kg) given intraperitoneally (IP) following treatment with dexamethasone (squares), ethanol carrier (triangles), myriocin (open shapes), or saline (solid shapes) as in A, above. Tail vein blood (3 μl) was sampled for glucose (C)(using the Glucometer Elite from Bayer Corp., Tarrytown, N.Y.) or insulin (D) (using an Elisa kit from Linco Diagnostics, Springfield, Mo.). […] (E-G) Hyperinsulinemic euglycemic clamps were performed on animals (n=4 per group) treated as in A, above, as described in SOM-Methods. Data from animals receiving myriocin are depicted in solid bars. (E) The glucose infusion rate required to maintain normal glycemia during insulin infusion ([…]) was calculated as the average infusion rate during the 60 minute steady state. (F) Hepatic glucose output was estimated by the disappearance of [^14C] glucose from a bolus dose given during the steady state minus the glucose infusion rate. (G) Disappearance of a bolus dose of [^3H] 2-deoxyglucose from the bloodstream was used to estimate the rate of whole body glucose uptake.
Tail vein blood (3 μl) was sampled for glucose determination (Hitachi 911 clinical chemistry analyzer, Roche, Indianapolis, Ind. or Glucometer Elite, Bayer Corp., Tarrytown, N.Y.)-30 minutes, immediately before and 15, 30, 45, 60, 90, and 120 min after glucose administration. Additionally, serum was collected and analyzed for insulin by Elisa (Linco Diagnostics, Springfield, Mo.).

The subject of assay [2] is Sprague dawley rats. Briefly: Hyperinsulinemic euglycemic clamps of dexamethasone treated rats. The format is in vivo, rat. The settings on record: plasma, Dexamethasone-treated (Saline or Myriocin), mean ± standard error, n=4. The method, then: as §1
To definitively evaluate effects on insulin sensitivity, as well as to distinguish whether the treatment protocols differentially affected glucose uptake in skeletal muscle or hepatic output by the liver, hyperinsulinemic-euglycemic clamps with D-[U-^14C] glucose and 2-deoxy-D-[2,6-^3H] glucose tracers were performed.
Clamps were performed in conscious unrestrained animals using swivels and tethers (Instech, Plymouth Meeting, Pa.) to allow uninterrupted movement of the animal without disruption of infusion lines. Hyperinsulinemia was initiated by intravenous infusion of insulin (10 mU/kg/min at a flow rate of 4 μL/min). Blood was sampled from arterial lines in 7 minute intervals and analyzed with a Beckman Glucose analyzer II (Beckman Coulter, Fullerton, Calif.). Euglycemia was maintained by variable infusion of 20% dextrose. Steady state was achieved approximately 90 minutes after initiating hyperinsulinemia and maintained for 30 minutes. Glucose infusion rates were calculated as the average glucose infusion rate during the 30 minute steady state. Additional blood samples were taken before initiating hyperinsulinemia and at the end of the clamp for analysis of insulin and free fatty acids.

Assay [3] has as its system Sprague dawley rats. Described as above. The format is in vivo, rat. The settings on record: plasma, 60 minute steady state; Dexamethasone-treated (Saline or Myriocin); mean ± standard error, n=4.
The subject of assay [4] is Sprague-Dawley rats. Briefly: Lipid infusion with hyperinsulinemic euglycemic clamps. The format is in vivo, rat. The settings on record: for Glucose, During Clamp / FFA, Before Clamp / FFA, Before Infusion / FFA, During Clamp / Glucose, Before Clamp / Glucose, Before Infusion / Insulin, Before Clamp / Insulin, Before Infusion / Insulin, During Clamp: plasma, mean ± standard error, n=4; for Glucose, During Clamp: 30 minute steady state. The text has this: The more common mechanism by which insulin resistance likely develops in the obese is through the accumulation of fats in tissues not-suited for lipid storage. Indeed, intramyocellular lipid levels inversely correlate with insulin sensitivity, and are one of the best predictors of insulin resistance in humans. To mimic this condition in rats, a 20% lard oil-heparin infusate was delivered into the bloodstream of Sprague-Dawley rats via jugular catheters. […] To assess muscle insulin sensitivity during the infusion, hyperinsulinemic-euglycemic clamps were performed on conscious, unrestrained rats during the terminal 90 minutes of the protocol. Lard oil infusion decreased insulin-stimulated glucose disposal to 47% of glycerol treated control subjects (FIG. 3C). […] Differences in the glucose infusion rats could not be accounted for by the slight differences in the glucose concentration that was achieved during the clamp nor to differences in steady-state insulin concentrations (Table 3).
Male Sprague-Dawley rats (˜250 grams) were randomly divided into nine different groups. Glycerol, 20% lard oil, or 20% soy oil emulsions were prepared as previously described (Stein 1997) and infused at a constant rate of 5 mL/Kg/hour. To activate lipoprotein lipase, heparin (6 units/hour) was added to the triglyceride emulsions. Lipids were infused in animals treated with control injections (normal saline), myriocin (100 μg/Kg IP) or cycloserine (50 mg/Kg IP). Drugs were given 12 hours prior to lipid infusion and equivalent doses were given intravenously at the time of infusion. […] Following lipid infusion animals were deeply anesthetized with sodium pentobarbital and soleus muscles were rapidly dissected out and rapidly frozen in liquid nitrogen.
Clamps were performed in conscious unrestrained animals using swivels and tethers (Instech, Plymouth Meeting, Pa.) to allow uninterrupted movement of the animal without disruption of infusion lines. Hyperinsulinemia was initiated by intravenous infusion of insulin (10 mU/kg/min at a flow rate of 4 μL/min).

For assay [5], the system named is soleus muscles. Kind of assay: Isolated soleus muscle strips incubated with free fatty acids. The settings on record: cycloserine 1 mM or myriocin 10 μM.
For assay [6], the target named is T1, DES 1 (Homo sapiens, UniProt O15121).
T1 sequence (O15121 1-323): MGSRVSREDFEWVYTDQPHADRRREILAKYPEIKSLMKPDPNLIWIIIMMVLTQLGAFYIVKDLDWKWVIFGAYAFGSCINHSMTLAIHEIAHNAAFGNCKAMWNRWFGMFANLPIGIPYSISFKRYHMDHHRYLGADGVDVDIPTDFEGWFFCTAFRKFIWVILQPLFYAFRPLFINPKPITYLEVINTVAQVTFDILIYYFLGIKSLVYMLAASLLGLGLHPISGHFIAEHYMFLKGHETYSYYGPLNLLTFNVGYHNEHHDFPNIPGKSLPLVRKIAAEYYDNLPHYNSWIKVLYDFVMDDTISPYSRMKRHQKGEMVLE
The settings on record: Zheng et al. 2006; Szkudelski et al. 2006; cited from earlier work.

Assay [7] concerns genes which control ceramide synthesis or degradation. Briefly: RT-PCR of genes which control ceramide synthesis or degradation after TNFα. The format is cell-based. The method, then: Using RT-PCR, mRNA levels of serine palmitoyltransferase subunits (LCB1 and LCB2), acid ceramidase (AC), glucosylceramide synthase (GCS), ceramide kinase (CerK), and ceramide synthase isoforms 1-6 (Cers/Lass 1-6) were evaluated.
The possibility that TNFαα-stimulation of lipolysis can account for the increase in ceramide by stimulating the formation of intracellular palmitoyl-CoA, which could serve as a precursor for ceramide biosynthesis, was considered. […] Instead, it appears that TNFα regulates the expression or activity of enzymes that control intracellular ceramide levels. Using RT-PCR, changes in mRNA levels of genes which control ceramide synthesis or degradation were evaluated. […] The analysis was extended to consider several ceramide synthase (CerS/LASS) isoforms, which selectively catalyze the incorporation of distinct fatty acids into the sphinganine backbone. TNFα-induced an impressive 8 and 5-fold increase in CerS1 and CerS4, respectively. These enzymes preferentially catalyze the production of ceramide species containing the stearate fatty acid.

[8] abbreviates: Intralipid infusion, with or without myriocin or cycloserine.
The mark [9] stands for this setting: lard oil infusion, with or without myriocin or cycloserine.

For the molecule `C[C@@H]1C[C@H]2[C@@H]3CCC4=CC(=O)C=C[C@]4(C)[C@@]3(F)[C@@H](O)C[C@]2(C)[C@@]1(O)C(=O)CO` [Dexamethasone], in assay [1], the “increase in fasting blood glucose” value stood at 13% and the “increase in fasting insulin concentrations” value amounted to 2.8 fold. In addition, the “Insulin, During Clamp” value in assay [2] (steady state) is listed as 6.7 ± 1.3 ng/mL. For the same molecule, the FFA in assay [2] (Before Clamp by layout) turned out to be 211 ± 38 µM. For the same molecule, in assay [2], the “Glucose, Before Clamp” value turned out to be 139.0 ± 3.1 mg/dL and the “Insulin, Before Clamp” value was 4.36 ± 2.34 ng/mL. Also, the “Glucose, During Clamp” value in assay [3] was found to be 131.1 ± 5.1 mg/dL.

With `N[C@@H]1CON=C1O` [L-cycloserine], in assay [4] (setting [8]), the “insulin-stimulated glucose disposal / insulin resistance” value is “Neither myriocin nor cycloserine prevented” and the “muscle DAG levels” value is “Neither myriocin nor cycloserine prevented”. Besides, in assay [4] (setting [9]), the “ceramide in skeletal muscle” value is listed as “blocked ceramide synthesis” and the “diacylglycerol (DAG) in muscle” value is recorded as “Neither myriocin nor cycloserine reduced DAG”. Besides, the “glucose utilization in clamp” value in assay [4] (lard-infused animals) is recorded as “restored glucose utilization”. In assay [4] (Lipid: Glycerol), the “Glucose, During Clamp” value came to 111.0 ± 3.0 mg/dL; the “FFA, Before Clamp” value came to 0.489 ± 0.10 mM; the “FFA, Before Infusion” value is given as 0.562 ± 0.10 mM; the “FFA, During Clamp” value is 0.501 ± 0.11 mM. Besides, in assay [4] (Lipid: Glycerol), the “Glucose, Before Clamp” value was 113.0 ± 3.2 mg/dL; the “Glucose, Before Infusion” value is listed as 104.0 ± 13.1 mg/dL; the “Insulin, Before Clamp” value stood at 9.19 ± 0.20 ng/mL; the “Insulin, Before Infusion” value is 0.659 ± 0.11 ng/mL. The “Insulin, During Clamp” value in assay [4] (Lipid: Glycerol) is on record as 12.08 ± 0.03 ng/mL. Moreover, in assay [4] (Lipid: Lard oil (PBS or drug)), the “Glucose, During Clamp” value came out at 106.6 ± 2.6 mg/dL; the “FFA, Before Clamp” value is on record as 1.53 ± 0.19 mM; the “FFA, Before Infusion” value amounted to 0.672 ± 0.14 mM; the “FFA, During Clamp” value stood at 2.12 ± 0.89 mM. In addition, in assay [4] (Lipid: Lard oil (PBS or drug)), the “Glucose, Before Clamp” value was 101.6 ± 7.1 mg/dL; the “Glucose, Before Infusion” value stood at 100.6 ± 6.4 mg/dL; the “Insulin, Before Clamp” value is 2.18 ± 0.76 ng/mL; the “Insulin, Before Infusion” value was found to be 0.793 ± 0.15 ng/mL. For the same molecule, the “Insulin, During Clamp” value in assay [4] (Lipid: Lard oil (PBS or drug)) is 16.27 ± 2.69 ng/mL. In addition, in assay [4] (Lipid: Soy oil (PBS or drug)), the “Glucose, During Clamp” value came to 106.2 ± 0.44 mg/dL; the “FFA, Before Clamp” value is recorded as 1.51 ± 0.23 mM; the “FFA, Before Infusion” value was found to be 1.02 ± 0.32 mM; the “FFA, During Clamp” value is 2.10 ± 0.77 mM. Besides, in assay [4] (Lipid: Soy oil (PBS or drug)), the “Glucose, Before Clamp” value turned out to be 124.0 ± 10.8 mg/dL; the “Glucose, Before Infusion” value is listed as 102.3 ± 7.1 mg/dL; the “Insulin, Before Clamp” value turned out to be 3.13 ± 1.0 ng/mL; the “Insulin, Before Infusion” value turned out to be 1.12 ± 0.17 ng/mL. The “Insulin, During Clamp” value in assay [4] (Lipid: Soy oil (PBS or drug)) came out at 14.38 ± 0.67 ng/mL. Further, in assay [5] (1 mM linoleate), the “linoleate effects on 2-DOG uptake” value is on record as “did not alter linoleate effects” and the “linoleate effects on DAG accumulation” value is given as “did not alter linoleate effects”. Also, in assay [5] (1 mM palmitate), the “DAG in palmitate-treated muscles” value was “without affecting DAG”, the “palmitate effect on insulin-stimulated 2-deoxyglucose uptake” value is reported as “completely negated the antagonistic effects of palmitate” and the palmitate-induced ceramide accumulation result is “prevented palmitate-induced ceramide accumulation”.

Consider `CC1=C(/C=C/C(C)=C/C=C/C(C)=C/C(=O)Nc2ccc(O)cc2)C(C)(C)CCC1` [fenretinide], for which the “inhibition of DES 1” value in assay [6] is “inhibit DES 1”.

Take `Oc1ccc(C=Cc2cc(O)cc(O)c2)cc1` [resveratrol]: the “inhibition of DES 1” value in assay [6] is “inhibit DES 1”.

In the case of TNFα, in assay [7], the “expression of glucosylceramide synthase (mRNA)” value is on record as “markedly reduced expression”; the “expression of serine palmitoyltransferase subunits LCB1 and LCB2 (mRNA)” value is listed as “increased expression”; the “increase in CerS1 (mRNA)” value was determined as 8 fold; the “increase in CerS4 (mRNA)” value is recorded as 5 fold.
